Laboratory results published in patent US20060210658A1, “Processes for obtaining (-)-guaiol and the use thereof” (priority 2000, published 2006).

Tests used:
Test in all cases: Antimicrobial action test (MIC)
Format in all cases: cell-based
Porphyromonas gingivalis = system: Porphyromonas gingivalis
From the text: (§1) Examples (Table 1): (MIC—minimum inhibitory concentration)

Epidermophyton floccosum = system: Epidermophyton floccosum
From the text: as §1
(§2) Examples: (MIC=minimum inhibitory concentration)

Malassezia furfur = system: Malassezia furfur
From the text: as §1, §2

Microsporum canis = system: Microsporum canis
From the text: as §1, §2

Microsporum gypseum = system: Microsporum gypseum
From the text: as §1, §2

Selenomonas artemidis = system: Selenomonas artemidis
From the text: as §1, §2

Staphylococcus aureus = system: Staphylococcus aureus
From the text: as §1, §2

Staphylococcus mutans = system: Staphylococcus mutans
From the text: as §1, §2

Staphylococcus sobrinus = system: Staphylococcus sobrinus
From the text: as §1, §2

[1] = system: Trichophyton mentagrophytes
From the text: as §1, §2

Trichophyton rubrum = system: Trichophyton rubrum
From the text: as §1, §2

[2] = system: Trichophyton schoenleinii
From the text: as §1, §2

Measured: MIC (minimum inhibitory concentration)

cyclodextrin [pure cyclodextrin]
>10000 ppm: all assays above
